Values of other authors in US6506055B1, “Method of reducing dentin sensitivity and compositions therefor” (MCG Research Institute, priority 1999, dated 2003).

Conditions: 3% w/v applied to dentin; both in vitro and in vivo

In the case of `O=C([O-])C(=O)O.[K+]` [monopotassium-monohydrogen oxalate], the “Hydraulic conductance of dentin” value is given as “reduced”.
